ChEMBL document CHEMBL4665648, “Potent and selective inhibitors of receptor-interacting protein kinase 1 that lack an aromatic back pocket group” (Bioorg Med Chem Lett, 2019)
Activity calls are given as the source filed them. No cut-off for these calls is given here.

How the values were obtained:
[1] = target: Calcium/calmodulin-dependent protein kinase kinase 1 (Homo sapiens) (UniProt Q8N5S9); experiment: Inhibition of tracer 236 binding to recombinant human GST-tagged full length CAMKK1 expressed in Escherichia coli expression system at 10 uM incubated for 60 mins by Lanthascreen assay relative to control
[2] = target: Receptor-interacting serine/threonine-protein kinase 1 (Mus musculus) (UniProt Q60855); experiment: Inhibition of mouse RIPK1 incubated for 2 hrs by fluorescence polarization assay
[3] = Inhibition of necroptosis in human HT-29 cells assessed as reduction in TNFalpha/BV6/zVAD-fmk-induced cell death incubated for 18 hrs by Cell Titer Glo luminescent cell viability assay; format: functional, cell-based; conditions: HT-29, 18 h
[4] = target: NUAK family SNF1-like kinase 1 (Homo sapiens) (UniProt O60285); experiment: Inhibition of recombinant human His-tagged full length ARK5 expressed in baculovirus expression system using CHKtide as substrate at 10 uM incubated for 60 mins by Adapta assay relative to control
[5] = target: CDK2/Cyclin A2 (Homo sapiens) (UniProt P24941+P20248); experiment: Inhibition of recombinant human His-tagged full length CDK2/Cyclin A expressed in baculovirus expression system using Ser/Thr 12 as substrate at 10 uM incubated for 60 mins by Z'-Lyte assay relative to control
[6] = target: Casein kinase I isoform gamma-1 (Homo sapiens) (UniProt Q9HCP0); experiment: Inhibition of recombinant human GST-tagged full length CK1gamma1 expressed in baculovirus expression system using Ser/Thr 05 as substrate at 10 uM incubated for 60 mins by Z'-Lyte assay relative to control
[7] = target: DNA-dependent protein kinase catalytic subunit (Homo sapiens) (UniProt P78527); experiment: Inhibition of recombinant human untagged full length DNA-PK expressed in baculovirus expression system using Ser/Thr 26 as substrate at 10 uM incubated for 60 mins by Z'-Lyte assay relative to control
[8] = target: Dual specificity tyrosine-phosphorylation-regulated kinase 1A (Homo sapiens) (UniProt Q13627); experiment: Inhibition of recombinant human GST-tagged full length DYRK1A expressed in baculovirus expression system using Ser/Thr 18 as substrate at 10 uM incubated for 60 mins by Z'-Lyte assay relative to control
[9] = target: Tyrosine-protein kinase Fes/Fps (Homo sapiens) (UniProt P07332); experiment: Inhibition of recombinant human His-tagged full length FES expressed in baculovirus expression system using Tyr 01 as substrate at 10 uM incubated for 60 mins by Z'-Lyte assay relative to control
[10] = target: Tyrosine-protein kinase Fgr (Homo sapiens) (UniProt P09769); experiment: Inhibition of recombinant human C-terminal His-tagged full length FGR expressed in baculovirus expression system using Tyr 02 as substrate at 10 uM incubated for 60 mins by Z'-Lyte assay relative to control
[11] = target: G protein-coupled receptor kinase 5 (Homo sapiens) (UniProt P34947); experiment: Inhibition of recombinant human GST-tagged full length GRK5 expressed in baculovirus expression system using Ser/Thr 16 as substrate at 10 uM incubated for 60 mins by Z'-Lyte assay relative to control
[12] = target: Tyrosine-protein kinase HCK (Homo sapiens) (UniProt P08631); experiment: Inhibition of recombinant human N-terminal GST-tagged full length HCK expressed in baculovirus expression system using Tyr 02 as substrate at 10 uM incubated for 60 mins by Z'-Lyte assay relative to control
[13] = target: Insulin receptor (Homo sapiens) (UniProt P06213); experiment: Inhibition of recombinant human GST-tagged InsR (1011 to 1382 residues) expressed in baculovirus expression system using Tyr 01 as substrate at 10 uM incubated for 60 mins by Z'-lyte assay relative to control
[14] = target: MAP kinase-activated protein kinase 2 (Homo sapiens) (UniProt P49137); experiment: Inhibition of recombinant human His-tagged full length MAPKAPK2 expressed in Escherichia coli expression system using Ser/Thr 04 as substrate at 10 uM incubated for 60 mins by Z'-lyte assay relative to control
[15] = target: Maternal embryonic leucine zipper kinase (Homo sapiens) (UniProt Q14680); experiment: Inhibition of recombinant human GST-tagged MELK (1 to 340 residues) expressed in baculovirus expression system using Ser/Thr 17 as substrate at 10 uM incubated for 60 mins by Z'-lyte assay relative to control
[16] = target: MAP kinase-interacting serine/threonine-protein kinase 1 (Homo sapiens) (UniProt Q9BUB5); experiment: Inhibition of recombinant human GST-tagged full length MKNK1 expressed in insect expression system using Ser/Thr 07 as substrate at 10 uM incubated for 60 mins by Z'-lyte assay relative to control
[17] = target: Platelet-derived growth factor receptor alpha (Homo sapiens) (UniProt P16234); experiment: Inhibition of recombinant human GST-tagged PDGFRalpha (550 to 1089 residues) expressed in baculovirus expression system using Tyr 04 as substrate at 10 uM incubated for 60 mins by Z'-lyte assay relative to control
[18] = target: Serine/threonine-protein kinase pim-1 (Homo sapiens) (UniProt P11309); experiment: Inhibition of recombinant human His-tagged full length PIM1 expressed in baculovirus expression system using Ser/Thr 07 as substrate at 10 uM incubated for 60 mins by Z'-lyte assay relative to control
[19] = target: Rho-associated protein kinase 2 (Homo sapiens) (UniProt O75116); experiment: Inhibition of recombinant human N-terminal GST-tagged ROCK2 (1 to 552 residues) expressed in baculovirus expression system using Ser/Thr 13 as substrate at 10 uM incubated for 60 mins by Z'-Lyte assay relative to control
[20] = target: Serine/threonine-protein kinase 16 (Homo sapiens) (UniProt O75716); experiment: Inhibition of tracer 236 binding to recombinant human His-tagged full length STK16 expressed in baculovirus expression system at 10 uM incubated for 60 mins by Lanthascreen assay relative to control
[21] = target: Testis-specific serine/threonine-protein kinase 1 (Homo sapiens) (UniProt Q9BXA7); experiment: Inhibition of recombinant human His-tagged full length TSSK1 expressed in baculovirus expression system using Ser/Thr 04 as substrate at 10 uM incubated for 60 mins by Z'-Lyte assay relative to control
[22] = target: Non-receptor tyrosine-protein kinase TYK2 (Homo sapiens) (UniProt P29597); experiment: Inhibition of recombinant human N-terminal GST-tagged TYK2 (833 to 1187 residues) expressed in baculovirus expression system using Tyr 03 as substrate at 10 uM incubated for 60 mins by Z'-Lyte assay relative to control
[23] = target: Mitogen-activated protein kinase kinase kinase 20 (Homo sapiens) (UniProt Q9NYL2); experiment: Inhibition of tracer 178 binding to recombinant human N-terminal GST-tagged full length ZAK expressed in baculovirus expression system at 10 uM incubated for 60 mins by Lanthascreen assay relative to control
[24] = target: Ribosomal protein S6 kinase beta-1 (Homo sapiens) (UniProt P23443); experiment: Inhibition of recombinant human GST-tagged p70S6K (1 to 421 residues) expressed in baculovirus expression system using Ser/Thr 07 as substrate at 10 uM incubated for 60 mins by Z'-Lyte assay relative to control
Ribosomal protein S6 kinase beta-1 (Homo sapiens), sequence (P23443 whole entry, looked up, the tested form may be a part): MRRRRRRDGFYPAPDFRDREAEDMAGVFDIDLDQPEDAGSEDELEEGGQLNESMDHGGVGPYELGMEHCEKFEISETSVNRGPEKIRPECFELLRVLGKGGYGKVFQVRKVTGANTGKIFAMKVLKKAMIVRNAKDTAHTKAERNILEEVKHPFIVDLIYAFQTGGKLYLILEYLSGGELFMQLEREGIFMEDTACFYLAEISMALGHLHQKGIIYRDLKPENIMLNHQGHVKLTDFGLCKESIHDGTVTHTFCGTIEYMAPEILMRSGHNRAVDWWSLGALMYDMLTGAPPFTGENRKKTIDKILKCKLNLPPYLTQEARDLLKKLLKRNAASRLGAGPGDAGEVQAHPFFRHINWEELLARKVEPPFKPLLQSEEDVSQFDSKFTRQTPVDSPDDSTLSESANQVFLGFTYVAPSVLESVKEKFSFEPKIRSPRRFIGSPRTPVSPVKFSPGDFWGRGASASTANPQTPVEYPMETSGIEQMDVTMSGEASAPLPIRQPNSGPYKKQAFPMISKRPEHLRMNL

Tyrosine-protein kinase HCK (Homo sapiens), sequence (P08631 2-526 limits assumed): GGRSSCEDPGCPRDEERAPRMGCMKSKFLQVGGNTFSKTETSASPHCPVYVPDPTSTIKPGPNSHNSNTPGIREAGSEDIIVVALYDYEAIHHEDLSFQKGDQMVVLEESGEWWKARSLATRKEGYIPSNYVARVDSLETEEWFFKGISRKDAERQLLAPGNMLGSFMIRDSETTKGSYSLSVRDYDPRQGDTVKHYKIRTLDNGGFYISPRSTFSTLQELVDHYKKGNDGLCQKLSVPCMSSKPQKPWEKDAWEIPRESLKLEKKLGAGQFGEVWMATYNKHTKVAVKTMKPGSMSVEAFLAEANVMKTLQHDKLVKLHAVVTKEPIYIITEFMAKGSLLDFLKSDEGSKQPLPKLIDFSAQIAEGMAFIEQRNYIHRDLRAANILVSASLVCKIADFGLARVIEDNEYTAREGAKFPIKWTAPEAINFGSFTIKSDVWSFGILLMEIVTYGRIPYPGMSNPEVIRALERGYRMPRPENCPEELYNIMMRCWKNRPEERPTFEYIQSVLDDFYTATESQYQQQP
MAP kinase-interacting serine/threonine-protein kinase 1 (Homo sapiens), sequence (Q9BUB5 whole entry, looked up, the tested form may be a part): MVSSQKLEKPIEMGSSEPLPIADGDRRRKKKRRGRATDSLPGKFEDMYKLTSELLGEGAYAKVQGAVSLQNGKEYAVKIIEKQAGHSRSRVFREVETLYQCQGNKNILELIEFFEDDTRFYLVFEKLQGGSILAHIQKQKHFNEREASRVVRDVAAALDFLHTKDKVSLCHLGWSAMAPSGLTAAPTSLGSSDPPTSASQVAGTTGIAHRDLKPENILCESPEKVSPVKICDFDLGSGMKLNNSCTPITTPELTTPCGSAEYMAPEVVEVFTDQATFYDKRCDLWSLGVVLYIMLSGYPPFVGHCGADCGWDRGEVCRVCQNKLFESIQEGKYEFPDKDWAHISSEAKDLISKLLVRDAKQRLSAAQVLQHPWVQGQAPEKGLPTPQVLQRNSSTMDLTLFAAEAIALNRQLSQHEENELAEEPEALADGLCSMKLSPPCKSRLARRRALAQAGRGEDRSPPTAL
NUAK family SNF1-like kinase 1 (Homo sapiens), sequence (O60285 whole entry): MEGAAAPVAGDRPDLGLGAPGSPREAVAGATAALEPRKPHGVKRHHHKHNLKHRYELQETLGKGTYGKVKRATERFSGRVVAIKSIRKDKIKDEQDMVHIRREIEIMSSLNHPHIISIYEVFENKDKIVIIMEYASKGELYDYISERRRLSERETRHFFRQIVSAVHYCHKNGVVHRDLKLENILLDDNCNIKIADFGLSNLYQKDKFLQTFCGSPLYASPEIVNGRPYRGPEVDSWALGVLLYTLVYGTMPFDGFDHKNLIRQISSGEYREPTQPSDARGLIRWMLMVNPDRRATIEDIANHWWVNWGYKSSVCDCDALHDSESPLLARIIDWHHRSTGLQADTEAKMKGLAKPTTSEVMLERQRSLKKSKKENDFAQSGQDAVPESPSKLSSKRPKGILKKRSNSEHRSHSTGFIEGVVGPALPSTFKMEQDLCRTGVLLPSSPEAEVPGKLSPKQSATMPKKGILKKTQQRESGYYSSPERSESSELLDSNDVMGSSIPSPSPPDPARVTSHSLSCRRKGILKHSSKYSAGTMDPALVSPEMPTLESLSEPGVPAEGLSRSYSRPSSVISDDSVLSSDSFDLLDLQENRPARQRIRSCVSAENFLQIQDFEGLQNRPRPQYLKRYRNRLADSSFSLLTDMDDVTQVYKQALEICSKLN
Serine/threonine-protein kinase pim-1 (Homo sapiens), sequence (P11309 whole entry, looked up, the tested form may be a part): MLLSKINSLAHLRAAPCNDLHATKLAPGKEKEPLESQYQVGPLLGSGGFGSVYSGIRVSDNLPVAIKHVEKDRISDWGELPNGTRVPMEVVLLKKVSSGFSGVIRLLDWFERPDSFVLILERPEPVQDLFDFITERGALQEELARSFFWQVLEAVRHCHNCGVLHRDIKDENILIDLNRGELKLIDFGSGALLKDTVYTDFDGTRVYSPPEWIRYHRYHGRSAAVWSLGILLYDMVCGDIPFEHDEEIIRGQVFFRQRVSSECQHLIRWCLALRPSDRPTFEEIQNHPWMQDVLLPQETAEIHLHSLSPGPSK
Serine/threonine-protein kinase 16 (Homo sapiens), sequence (O75716 whole entry): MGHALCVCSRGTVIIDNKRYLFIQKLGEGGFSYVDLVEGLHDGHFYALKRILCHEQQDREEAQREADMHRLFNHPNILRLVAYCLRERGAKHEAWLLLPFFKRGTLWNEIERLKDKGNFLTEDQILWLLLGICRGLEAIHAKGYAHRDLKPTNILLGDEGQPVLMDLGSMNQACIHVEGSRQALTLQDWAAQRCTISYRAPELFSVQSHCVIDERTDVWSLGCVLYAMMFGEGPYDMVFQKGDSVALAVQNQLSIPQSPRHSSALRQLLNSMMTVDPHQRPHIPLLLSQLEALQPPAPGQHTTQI
Casein kinase I isoform gamma-1 (Homo sapiens), sequence (Q9HCP0 whole entry, looked up, canonical isoform): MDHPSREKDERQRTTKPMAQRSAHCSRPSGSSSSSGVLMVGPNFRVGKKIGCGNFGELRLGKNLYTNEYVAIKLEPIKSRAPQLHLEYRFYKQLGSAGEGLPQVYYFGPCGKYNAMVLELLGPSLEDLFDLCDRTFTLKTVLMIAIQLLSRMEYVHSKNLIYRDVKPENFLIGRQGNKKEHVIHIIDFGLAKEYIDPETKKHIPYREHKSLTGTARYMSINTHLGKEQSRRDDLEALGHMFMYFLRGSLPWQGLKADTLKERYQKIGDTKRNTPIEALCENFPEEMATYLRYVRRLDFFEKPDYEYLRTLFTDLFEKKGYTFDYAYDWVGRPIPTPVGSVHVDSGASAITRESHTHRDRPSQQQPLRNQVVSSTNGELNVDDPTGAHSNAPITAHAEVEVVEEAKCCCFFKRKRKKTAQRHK
Rho-associated protein kinase 2 (Homo sapiens), sequence (O75116 whole entry, looked up, the tested form may be a part): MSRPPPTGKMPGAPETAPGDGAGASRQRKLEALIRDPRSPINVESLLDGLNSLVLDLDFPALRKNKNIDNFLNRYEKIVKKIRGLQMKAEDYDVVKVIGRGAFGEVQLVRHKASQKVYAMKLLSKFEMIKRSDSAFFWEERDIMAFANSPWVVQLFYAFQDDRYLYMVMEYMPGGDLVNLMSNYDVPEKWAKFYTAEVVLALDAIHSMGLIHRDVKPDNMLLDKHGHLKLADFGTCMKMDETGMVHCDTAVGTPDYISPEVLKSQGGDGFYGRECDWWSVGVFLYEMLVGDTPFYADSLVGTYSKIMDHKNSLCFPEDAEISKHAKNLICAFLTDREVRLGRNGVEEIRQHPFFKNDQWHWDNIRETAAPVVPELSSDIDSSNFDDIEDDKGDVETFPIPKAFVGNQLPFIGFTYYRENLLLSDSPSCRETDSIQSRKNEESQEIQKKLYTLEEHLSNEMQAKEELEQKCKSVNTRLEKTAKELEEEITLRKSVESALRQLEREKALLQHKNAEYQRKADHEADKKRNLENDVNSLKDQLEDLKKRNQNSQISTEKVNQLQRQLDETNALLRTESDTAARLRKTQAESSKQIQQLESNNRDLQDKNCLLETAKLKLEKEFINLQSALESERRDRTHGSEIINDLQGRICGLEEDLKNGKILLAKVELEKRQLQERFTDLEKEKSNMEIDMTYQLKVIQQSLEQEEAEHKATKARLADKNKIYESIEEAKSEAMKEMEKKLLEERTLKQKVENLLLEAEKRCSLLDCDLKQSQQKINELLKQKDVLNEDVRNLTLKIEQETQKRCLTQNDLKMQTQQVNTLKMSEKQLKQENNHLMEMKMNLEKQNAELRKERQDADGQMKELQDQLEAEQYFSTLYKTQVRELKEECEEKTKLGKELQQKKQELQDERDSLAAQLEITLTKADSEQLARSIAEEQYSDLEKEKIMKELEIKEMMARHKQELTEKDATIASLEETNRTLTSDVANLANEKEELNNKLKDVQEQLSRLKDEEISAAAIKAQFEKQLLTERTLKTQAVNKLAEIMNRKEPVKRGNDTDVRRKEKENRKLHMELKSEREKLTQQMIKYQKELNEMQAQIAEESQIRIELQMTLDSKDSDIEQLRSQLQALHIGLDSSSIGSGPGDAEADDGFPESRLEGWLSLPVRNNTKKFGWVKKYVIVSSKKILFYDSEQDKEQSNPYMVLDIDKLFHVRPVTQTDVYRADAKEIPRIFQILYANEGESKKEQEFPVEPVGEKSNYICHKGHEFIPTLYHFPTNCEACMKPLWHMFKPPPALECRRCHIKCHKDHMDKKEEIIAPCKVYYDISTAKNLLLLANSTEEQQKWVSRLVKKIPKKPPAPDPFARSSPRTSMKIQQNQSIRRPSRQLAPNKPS
MAP kinase-activated protein kinase 2 (Homo sapiens), sequence (P49137 whole entry, looked up, the tested form may be a part): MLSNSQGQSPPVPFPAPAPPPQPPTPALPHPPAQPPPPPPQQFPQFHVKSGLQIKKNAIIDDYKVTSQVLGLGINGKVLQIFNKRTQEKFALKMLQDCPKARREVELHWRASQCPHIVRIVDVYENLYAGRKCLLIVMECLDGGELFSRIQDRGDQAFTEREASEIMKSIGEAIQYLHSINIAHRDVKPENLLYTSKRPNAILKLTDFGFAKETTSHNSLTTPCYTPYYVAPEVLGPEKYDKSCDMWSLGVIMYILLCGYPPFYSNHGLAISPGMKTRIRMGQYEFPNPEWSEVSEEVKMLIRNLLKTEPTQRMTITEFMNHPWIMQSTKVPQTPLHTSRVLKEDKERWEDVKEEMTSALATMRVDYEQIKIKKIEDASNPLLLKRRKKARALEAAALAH

CN1C(=O)[C@@H](NC(=O)c2n[nH]c3ncc(C(F)(F)C(F)(F)F)cc23)COc2ccccc21
inhibition [1]: -5%
inhibition [2]: inactive
EC50 [3]: 54 nM
inhibition [4]: 8.5%
inhibition [5]: 13%
inhibition [6]: 5%
inhibition [7]: 4.5%
inhibition [8]: 3.5%
inhibition [9]: 5.5%
inhibition [10]: 1.5%
inhibition [11]: 7.5%
inhibition [12]: 4.5%
inhibition [13]: 6%
inhibition [14]: 4%
inhibition [15]: -6%
inhibition [16]: 7%
inhibition [17]: 2.5%
inhibition [18]: -5%
inhibition [19]: -3%
inhibition [20]: 3%
inhibition [21]: 0%
inhibition [22]: 5.5%
inhibition [23]: 6.5%
inhibition [24]: 6.5%
